Results published in patent publication EP0417209B1, “COMPOSITIONS AND METHODS FOR ADMINISTERING […] ACTIVE COMPOUNDS” (priority 1988, dated 1990).
Where “and” joins values, the source holds several entries; their conditions need not be identical. Equal values may be shown once.

Experiments:
[1] = cited from earlier work
[2] = set-up: species or system Wistar derived albino rats; conditions: rat, in vivo
Description: Sixteen Wistar derived albino rats, eight male (242-333 gms) and eight female (295-345 gms) were acclimated for seven days prior to beginning this study. During this period the rats were fed Purina(R) Rodent Chow, watered ad lib and housed in self-flushing stainless-steel cages.
The rats were randomly assigned to two groups of eight each (4 males and 4 females) and placed in metabolism cages. […] Blood samples were taken at 1, 2, 3 and 4 hours after dosing for serum salicylate analysis. Urine was collected if produced at the same time periods for salicylate analysis also. In an effort to maximize urine output the rats were given additional water at 1, 2, 3 and 4 hours by gavage (3 ml).
Blood and urine were collected and analyzed according to the method of Natleson. [Natelson, S. Techniques of Clinical Chemistry, ed. 3. p. 649, Charles C. Thomas, Pub. (1971)]. The study was terminated after the 4 hour collection time.
All statistics were calculated via Statistical Analysis System (SAS Institute, Inc., Box 8000, Cary, NC, 27511) software. The ANOVA (repeated measures model) procedure was used to determine differences in salicylate concentrations between groups.
The average values (X) and standard deviation (SD) for each group and time are given. Figure 1 is a histogram presentation of the data in Table 2. The significance level (P) of the differences between the two groups at each sample time in salicylate concentration in serum are given next to each set of histograms. Figure 2 is the serum salicylate profile over time for both groups of rats, standard deviation bars are included. The initial uptake rate (gastrointestinal) is calculated from the linearized curve in the first hour after dosing. Urine salicylate data is not presented in detail but will be discussed below. The groups are not broken down into male and female because there is no significant difference in the serum salicylate related to the sex of the animal.

[3] = set-up: species or system men; conditions: in vivo
From the text: The following example describes clinical tests comparing the product of Example 1 (test material) with L-ascorbic acid and citric acid (placebo), measuring intra-cellular and serum ascorbate levels, urinary ascorbate output and urinary oxalate excretion at various times after ingestion of standard doses of the test, L-ascorbic acid and placebo.
Twelve men, ages 27 to 45, were studied.
All were instructed that they should be on a low Vitamin C diet for one week prior to the study (no citrus products and no large amounts of green leafy vegetables).
Following overnight fast, blood and 24-hour urine samples were taken. White blood cell and 24-hour urinary ascorbate and oxalate levels were determined and correlated with serum ascorbate levels.
The 12 men were divided into three groups, and were given the following supplements: • (a) Test Group: 4000 MG* per day of the product Ex. 1. • (b) Ascorbate Group: 3000 MG of L-ascorbic per day. • (c) Citric Acid Group: 3000 MG of citric acid per day. *4000 MG is equivalent in ascorbate (iodine test) to 3000MG L-ascorbic acid.
All 12 continued on a low Vitamin C diet. Blood samples were taken at 0, 4, 8 and 24 hours after morning ingestion of the designated supplements. Urinary 24-hour ascorbate and oxalate levels were determined.
After a wash-out period (varying from two days to several days, due to job situation of participants), the groups were switched to another supplement, as follows: • (a) Test group to citrate group. • (b) Citrate group to ascorbate group. • (c) Ascorbate group to test group.
Supplements were taken at the same level (4000 MG of Ex. 1 product, 3000 MG of L-ascorbic and 3000 MG of citric acid) by all three groups. Blood samples were again drawn at 0, 4, 8 and 24 hours from time of ingestion. A 24-hour urine was also collected by all 12 participants at the end of the period. Again, all specimens were analyzed for their respective concentration of ascorbate and oxalate levels.
The analytical procedures utilized are described in: Clinical Chemistry, Principles and Techniques, edited by Richard J. Henry, Donald D. Cannon and James W. Windelman, Harper and Row, 1974 p. 1393-1398.
Standard Method of Clinical Chemistry, J. S. Roe, edited by Seligson D. New York, Academic Press, 1961, Vo. 3, p. 35.
In the quantitation of 24-hour urine oxalate, an aliquot of urine is shaken with an adsorbent which selectively binds the oxalate. The extracted urine is discarded and the oxalate is eluted from the adsorbent with dilute alkali.
Oxalate is oxidized to hydrogen peroxide and carbon dioxide by oxalate oxidase. The hydrogen peroxide reacts with 3-methyl-2-benzothiozolinone hydrazone (MBTH) and 3 (dimethylamino) benzoic acid (DMAB) in the presence of peroxidase to yield an indamine dye with a maximum absorbance at 590 NM.

[4] = Plasma Piroxicam after gavage, combined administration with calcium threonate (Example 12); format: in vivo, Wistar derived albino rats; conditions: 0.6 mg/kg; for Plasma Piroxicam Concentration: listed as U.S.P. piroxicam; for concentration at 4 h: 4 hours after dosing
Description: Ten Wistar derived albino rats, male (375-411 gms), were acclimated for seven days prior to beginning the study. During this period the rats were fed Purina(R) Rodent Chow, watered ad lib and housed in self-flushing stainless-steel cages.
The rats were randomly assigned to two groups of five each and placed in Nalgene(R) cages. Group A received U.S.P. Piroxicam at 0.6 mg/kg, and Group AM received U.S.P. Piroxicam at 0.6 mg/kg plus calcium threonate at 15 mg/kg by gavage. Plasma samples were taken at 4, 6, 8 and 10 hours after dosing for plasma Piroxicam analysis.
Selective HPLC was used to analyze Piroxicam and the data analyzed via SAS. The ANOVA repeated measures procedure was used to determine differences in plasma Piroxicam concentrations between groups.
The average values (X) for each group and time are given. Figure 3 is the plasma profile of the data in Table 4.

[5] = Plasma Piroxicam after gavage, 3-day calcium threonate pretreatment (Example 13); format: in vivo, Wistar derived Albino rats; conditions: rat, po, 0.6 mg/kg, read-out: Piroxicam Plasma Concentration, average (X)
Description: Ten Wistar derived Albino rats, male (420-456 gms), were acclimated for seven days prior to beginning the study. During this period the rats were fed Purina(R) Rodent Chow, watered ad lib and housed in self-flushing stainless-steel cages.
The rats were randomly assigned to two groups of five each. Group A rats were gavaged daily for 3 days with 1.0 ml distilled water prior to beginning the study. Group AM rats were gavaged daily with 15 mg/kg/ml of calcium threonate for 3 days also. Threonate dosages were corrected for increases in body weights daily in insure the 15 mg/kg dose was maintained.
On day 4 the Group A rats were gavaged with Piroxicam at 0.6 mg/kg and group AM rats with 0.6 mg/kg Piroxicam and 15 mg/kg threonate. Plasma samples were taken at 4, 6, 8 and 10 hrs. post-dosing for plasma Piroxicam analysis.
Selective HPLC was used to analyze Piroxicam. The data was analyzed statistically by the SAS procedure. The ANOVA repeated measures procedure was used to determine differences in plasma Piroxicam concentration between groups.
The average (X) values for each group at each time period are given.

movement disorders = assay: Supplementation of dogs with chronic movement disorders; clinical evaluation and owner's report; format: in vivo; conditions: given orally
Description: One hundred-eighty dogs of varying breed and age were fed 3 x 30 mgs/kg of the product of Example 1. All of these dogs suffered movement disorders.
The effect was measured seven days after supplementation and then again after six weeks. Last evaluation was after more than six months.
A number of different ailments were treated, both acute and chronic. In acute illness where symptoms are rapidly changing, one finds it hard to distinguish between the effect of supplementation and other factors.
Animals with the following chronic ailments were chosen: joint-injuries with secondary permanent changes, arthrosis, spondylosis, hip dysplasia, older dico-prolapse with secondary permanent changes, muscle-atrophy as a result of funtio laesa and senile wear-changes in support and motion-systems.
One hundred dogs qualify under the above criteria. Age or breed was not taken into consideration in this report.

Description for 3T3 mouse fibroblasts: A control group was incubated with Ringer's as a control.
(5 ul of 14C-L ascorbic acid was added, 10.0 mCi/mmol, 0.05 mCi/ml).
The flasks were then washed with 4 ml HBSS(-) and then were trypsinized with 0.1 ml trypsin-EDTA for 5 minutes. The cells were resuspended in 4 ml ice cold HBSS(-) to stop the enzymatic reaction. The cells were centrifuged for 10 minutes at 1000 G. The cells were then washed and resuspended in 4 ml HBSS(-). The cells were again centrifuged (10 min, 1000G), resuspended in 1.0 ml distilled H2O and sonicated for 90 seconds.
0.5 ml of each sample was used for counting ^14C and 0.5 ml was used for protein analysis using the Bradford method.

In the case of C=CCOc1ccc(CC(=O)O)cc1Cl [Alclofenac], the pKa [1] is given as 4.6.
For CC(=O)Oc1ccccc1C(=O)O [Aspirin], the elimination rate [2] was 1.30 mg/h, the uptake rate [2] was 4.40 mg/h and the Urine salicylate ([2]; 60 min) was “approximately 9.1 mg%”.
With O=C(O)[C@H](O)[C@@H](O)CO [Calcium-L-Threonate, calcium L-threonate] the “uptake of 14C into the cells, average” value (3T3 mouse fibroblasts; average of three flasks) was 1.19 DPM/ug, the “Uptake Ratio, average” value (3T3 mouse fibroblasts; average of three flasks, relative to Ringer's control) was 1.86 and the “uptake of 14C into the cells” value (3T3 mouse fibroblasts; single flask, 100 mg% calcium L-threonate 1 hour at 37°C, then 1.25 mg% ascorbic acid 20 minutes) was 0.835 DPM/ug and 1.341 DPM/ug and 1.384 DPM/ug. For the same compound, the “Uptake Ratio” value (3T3 mouse fibroblasts; single flask, relative to average Ringer's control) was 1.30 and 2.09 and 2.16.
For CO[C@@]1(NC(=O)Cc2cccs2)C(=O)N2C(C(=O)O)=C(COC(N)=O)CS[C@@H]21 [Cefoxitin], the pKa [1] is given as 2.2.
With O=C1O[C@H]([C@@H](O)CO)C(O)=C1O [L-ascorbic, L-ascorbic acid] the “7th Day Urine Ascorbate” value [3] was 459 MG/24 Hour, the “7th Day Urine Ascorbate % Change” value [3] was 4583% and the “24 Hour Urine Ascorbate” value [3] was 314.5 MG/24 Hour. For the same compound, the “24 Hour Urine Ascorbate % Change” value [3] was 2760.6%, the “24th Hour Urine Oxalate” value [3] was 63.8 MG/24 Hour and the “24th Hour Urine Oxalate % Change” value [3] was 162%.
For Cc1ccc(Cl)c(Nc2ccccc2C(=O)O)c1Cl [Meclofenamic Acid], the pKa [1] is listed as 4.0.
In the case of CN1C(C(=O)Nc2ccccn2)=C(O)c2ccccc2S1(=O)=O [Prioxicam], the “Plasma Piroxicam Concentration” value ([4]; 8 hours after dosing, individual rat, 480 min) is reported as 1.9 µg/mL and 1.8 µg/mL and 1.6 µg/mL, the “Plasma Piroxicam Concentration” value ([4]; 10 hours after dosing, individual rat, 600 min) is reported as 1.4 µg/mL and 1.7 µg/mL and 2.0 µg/mL and the concentration at 4 h ([4]; rat, plasma, po, group average, read-out: Plasma Piroxicam Concentration, average (X)) is reported as 1800 ng/mL. For the same compound, the concentration at 4 h ([4]; rat, plasma, po, piroxicam 0.6 mg/kg (AM: plus threonate 15 mg/kg), individual rat, read-out: Plasma Piroxicam Concentration) was 2200 ng/mL, the concentration at 6 h ([4]; rat, plasma, po, 6 hours after dosing, group average, read-out: Plasma Piroxicam Concentration, average (X)) was 1700 ng/mL and the concentration at 8 h ([4]; rat, plasma, po, 8 hours after dosing, group average, read-out: Plasma Piroxicam Concentration, average (X)) was 1800 ng/mL. It also gave a concentration at 8 h ([4]; rat, plasma, po, 8 hours after dosing, individual rat, read-out: Plasma Piroxicam Concentration) of 1700 ng/mL, a concentration at 10 h ([4]; rat, plasma, po, 10 hours after dosing, group average, read-out: Plasma Piroxicam Concentration, average (X)) of 1800 ng/mL and a concentration at 10 h ([4]; rat, plasma, po, 10 hours after dosing, individual rat, read-out: Plasma Piroxicam Concentration) of 2000 ng/mL. The concentration at 4 h ([5]; 4 hrs post-dosing on day 4, group average) was 1300 ng/mL, the concentration at 6 h ([5]; 6 hrs post-dosing on day 4, group average) was 1300 ng/mL and the concentration at 8 h ([5]; 8 hrs post-dosing on day 4, group average) was 1100 ng/mL. The concentration at 10 h ([5]; 10 hrs post-dosing on day 4, group average) was 900 ng/mL.
In the case of CC1=C(CC(=O)O)c2cc(F)ccc2/C1=C\c1ccc([S+](C)[O-])cc1 (stereo not shown) [Sulindac], the pKa [1] is listed as 4.7.
For O=C1O[C@H]([C@@H](O)CO)C(O)=C1O [calcium-ascorbate], the “symptomatic relief of chronic deforming changes in the joint and skeleton system” value (movement disorders) was “Neither calcium-ascorbate alone nor L-ascorbic acid alone give such relief”.
